The values that follow come from PMC9208756, “A dual-target herbicidal inhibitor of lysine biosynthesis” (eLife, 2022).

Several values for one entry are separate records, joined by “and”; a condition that tells them apart may be missing. Equal values may be shown once. Read-outs that look alike come from different tables or passages of the source. Bounds are passed on as bounds.

In test [1] the target is T1, AtDHDPR1 (Arabidopsis thaliana, UniProt O80574).
T1 construct: made in house
T1 sequence (O80574 52-347): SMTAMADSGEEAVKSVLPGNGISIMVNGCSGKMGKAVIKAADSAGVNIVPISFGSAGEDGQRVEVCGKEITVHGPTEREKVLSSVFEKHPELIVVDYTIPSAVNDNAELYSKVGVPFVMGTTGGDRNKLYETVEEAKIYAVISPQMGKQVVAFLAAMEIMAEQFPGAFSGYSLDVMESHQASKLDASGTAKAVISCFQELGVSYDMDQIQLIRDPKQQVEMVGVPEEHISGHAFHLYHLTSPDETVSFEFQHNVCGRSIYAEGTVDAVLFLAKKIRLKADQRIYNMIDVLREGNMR
As to the kind of experiment: DHDPR enzyme inhibition assay, recombinant AtDHDPR1. The test is classed as biochemical. On the procedure: (§1) Briefly, reaction mixtures were incubated at 30℃ for 12 min before a second 60-s incubation following the addition of excess E. coli DHDPS (51 µg ml^−1) for generation of the DHDP substrate. The relevant DHDPR isoform (2.6 µg ml^−1) was added to initiate the reaction, and substrate turnover measured spectrophotometrically at 340 nm via the associated oxidation of the cofactor NADPH. Experiments were performed in technical triplicates.

Test [2] deals with T2, AtDHDPR2 (Arabidopsis thaliana, UniProt Q8LB01).
T2 construct: made in house
T2 sequence (Q8LB01 54-349): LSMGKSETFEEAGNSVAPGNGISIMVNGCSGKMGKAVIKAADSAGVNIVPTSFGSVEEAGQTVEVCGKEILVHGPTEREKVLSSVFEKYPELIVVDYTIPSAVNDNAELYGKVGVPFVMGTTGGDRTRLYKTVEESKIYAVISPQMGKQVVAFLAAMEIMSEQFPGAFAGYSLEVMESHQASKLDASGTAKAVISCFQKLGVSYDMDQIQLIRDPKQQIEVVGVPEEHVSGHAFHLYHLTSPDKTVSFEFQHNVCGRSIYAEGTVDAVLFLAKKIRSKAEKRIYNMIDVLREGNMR
Kind of test: DHDPR enzyme inhibition assay, recombinant AtDHDPR2. The class given is biochemical. On the procedure: as §1

The subject of test [3] is AtDHDPR. Kind of test: DHDPR enzyme inhibition, comparisons over both isoforms. The test is classed as biochemical, Arabidopsis thaliana. On the procedure: as §1
Test [4] addresses T3, AtDHDPS2 (Arabidopsis thaliana, UniProt Q9FVC8).
T3 construct: made in house
T3 sequence (Q9FVC8 40-365): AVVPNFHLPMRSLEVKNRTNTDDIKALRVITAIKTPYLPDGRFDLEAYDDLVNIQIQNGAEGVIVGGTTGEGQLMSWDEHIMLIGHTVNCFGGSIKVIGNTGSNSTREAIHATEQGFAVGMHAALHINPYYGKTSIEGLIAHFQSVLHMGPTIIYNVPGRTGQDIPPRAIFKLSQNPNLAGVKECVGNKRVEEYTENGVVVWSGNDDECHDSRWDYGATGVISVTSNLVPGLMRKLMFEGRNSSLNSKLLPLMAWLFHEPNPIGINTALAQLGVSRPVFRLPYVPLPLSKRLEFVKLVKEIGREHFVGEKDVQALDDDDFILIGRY
Also noted: method as in Soares da Costa et al., 2021. The settings on record: previously reported; ref Soares da Costa et al., 2021; cited from earlier work.

Test [5] relates to Lolium rigidum. Kind of test: Herbicidal activity, pre-emergence treatment of soil-grown plants. The class given is in vivo. On the procedure: . Pre-wet seed-raising soil (pH 5.5) (Biogro, Dandenong South, VIC, Australia) supplemented with 0.22% (wt/wt) Nutricote N12 Micro 140 day-controlled release fertiliser (Yates, Sydney, NSW, Australia) was used. Ten seeds were sown at a depth of 0.5 cm into pots of pre-wet soil, following stratification at 4℃ for 21 days in the dark. Compounds dissolved in DMSO were diluted to working concentrations in H2O containing 0.01% (vol/vol) Agral (Syngenta, North Ryde, NSW, Australia) to a final DMSO concentration of 2% (vol/vol). Treatments were given by pipetting 2.0 ml of MBDTA-2, vehicle control or positive control (chlorosulfuron PESTANAL [Sigma-Aldrich, North Ryde, NSW, Australia]) directly onto seeds upon sowing and on each of the subsequent 2 days. Plants were grown in a chamber at 22℃ under a 16 hr light (100 µmol m^−2 s^−1)/8 hr dark schedule for 14 days before photos were taken. Roots and shoots were separated prior to drying at 70℃ for 72 hr. Experiments were performed in biological triplicates.

Test [6] has as its target T4, AtDHDPS1 (Arabidopsis thaliana, UniProt Q9LZX6).
T4 construct: made in house
T4 sequence (Q9LZX6 40-365): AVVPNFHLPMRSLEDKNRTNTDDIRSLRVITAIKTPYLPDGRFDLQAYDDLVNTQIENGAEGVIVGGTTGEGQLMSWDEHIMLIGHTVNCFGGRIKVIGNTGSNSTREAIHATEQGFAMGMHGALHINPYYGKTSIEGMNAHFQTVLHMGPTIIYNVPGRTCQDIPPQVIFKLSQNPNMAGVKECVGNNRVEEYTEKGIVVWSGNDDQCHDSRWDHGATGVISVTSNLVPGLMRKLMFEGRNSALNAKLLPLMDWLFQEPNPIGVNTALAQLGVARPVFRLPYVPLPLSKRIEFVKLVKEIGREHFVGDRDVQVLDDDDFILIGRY
Kind of test: DHDPS enzyme inhibition assay, recombinant AtDHDPS1. The class given is biochemical.

Test [7] addresses T3, AtDHDPS2. Kind of test: DHDPS enzyme inhibition assay, recombinant AtDHDPS2. The test is classed as biochemical.
Where [8] appears, read: [MBDTA-2] 0.000125 M, limiting substrate and cofactor, replicates 1-3.
Setting [9] is: 1200 mg l^−1, three pre-emergence treatments, 14 days, vs vehicle.
[10] abbreviates: Treated, 1200 mg l^−1, biological triplicates.
[11] abbreviates: [HBDTA] 0.000125 M, replicates 1-3.
Where [12] appears, read: [HBDTA-2] 0.000125 M, replicates 1-3.
Where [13] appears, read: [HBDTA-2] 0.0005 M, replicates 1-3.

For the compound `COc1ccc(/C=C2\SC(=O)N(CC(=O)O)C2=O)cc1` [MBDTA-2, (Z)-2-(5-(4-methoxybenzylidene)-2,4-dioxothiazolidin-3-yl)acetic acid], the “fold greater IC50 with excess vs limiting substrate and cofactor” value in test [1] (AtDHDPR1) came out at 10 fold; in test [2] (AtDHDPR2), 8 fold. In addition, the half-maximal inhibitory concentration (IC50) (usually the concentration that gives 50% inhibition) was 72.7 ± 1.07 µM in test [1] (IC50 against AtDHDPR1, excess substrate and nucleotide cofactor, 10-fold above KM); 6.92 ± 0.92 µM in test [1] (IC50 against AtDHDPR1, substrate and cofactor at limiting concentrations); 69.5 ± 1.06 µM in test [2] (IC50 against AtDHDPR2, excess substrate and nucleotide cofactor, 10-fold above KM); 8.58 ± 1.19 µM in test [2] (IC50 against AtDHDPR2, substrate and cofactor at limiting concentrations); 64 ± 1 µM in test [4]. Also, the remaining activity (as a rule, the activity still measured, relative to the control) at 125 µM stood at 9.11% in test [1] (setting [8]); 7.04% in test [1] ([MBDTA-2] 0.000125 M, saturating substrate and cofactor, replicates 1-3); 0% in test [2] (setting [8]). For the same compound, the remaining activity at 250 µM in test [2] ([MBDTA-2] 0.00025 M, limiting substrate and cofactor, replicates 1-3) was found to be 0%. In addition, the remaining activity at 500 µM in test [2] ([MBDTA-2] 0.0005 M, saturating substrate and cofactor, replicates 1-3) is 0.507%. The mechanism of inhibition result in test [3] (from IC50 shift with excess substrate and cofactor) was “competitive inhibitor”. Besides, the “effect on germination and growth” value in test [5] (1200 mg l^−1) is “inhibition of plant germination and growth”. For the same compound, the “fold reduction in root dry weight” value in test [5] (setting [9]) was ~ 2 fold. Further, the “fold reduction in shoot dry weight” value in test [5] (setting [9]) was ~ 5 fold. Besides, in test [5] (setting [9]), the “fold reduction in shoot fresh weight” value is ~ 4 fold. Besides, the “Dry Weight, Roots” value in test [5] (setting [10]) is 7 mg and 10 mg. In test [5] (setting [10]), the “Dry Weight, Shoots” value was 10 mg and 8 mg. Besides, the “Fresh Weight, Roots” value in test [5] (setting [10]) was 44 mg and 33 mg and 58 mg. In addition, the “Fresh Weight, Shoots” value in test [5] (setting [10]) was 71 mg and 107 mg and 109 mg.

Consider `O=C(O)CN1C(=O)S/C(=C\c2ccc(O)cc2)C1=O` [HBDTA, (Z)-2-(5-(4-hydroxybenzylidene)-2,4-dioxothiazolidin-3-yl)acetic acid], for which the remaining activity at 125 µM in test [6] (setting [11]) was 31.1%; in test [1] (setting [12]), 83.9%; in test [2] (setting [12]), 65.7%; in test [7] (setting [11]), 37%. For the same compound, the IC50 in test [6] (recombinant enzyme) is 100 ± 0.95 µM; in test [1] (substrate and cofactor at limiting concentrations, read-out: IC50 against AtDHDPR1), 169 ± 0.92 µM; in test [2] (substrate and cofactor at limiting concentrations, read-out: IC50 against AtDHDPR2), 155 ± 0.9 µM; in test [7] (recombinant enzyme) it was 105 ± 1.04 µM. The remaining activity at 250 µM in test [1] ([HBDTA-2] 0.00025 M, replicates 1-3) is 8.06%. Further, the remaining activity at 500 µM in test [1] (setting [13]) and in test [2] (setting [13]) was 0% each time. Moreover, the “fold less potent at the DHDPR target site relative to MBDTA-2” value in test [3] (ratio of IC50 values) is given as greater than 18 fold.
